Measurements as given in patent US7001897B2, “1-methylcarbapenem derivatives” (Sankyo Company, Limited, priority 2000, dated 2006).
In brackets after ≈: the same amount, converted by molar mass. Where a name gives a salt, the structure may show the parent alone. Read-outs that look alike come from different tables or passages of the source.

What was measured:
[1] = test system: Haemophilis influenzae strain 9787 (a strain producing β-lactamase); experiment: In vitro antibacterial activity, agar plate dilution method; format: cell-based; settings: read-out: Minimum Concentration to Inhibit Growth of the Employed Bacteria C
Description: (§1) To assess the antibacterial activities of the compounds, the minimum concentrations (μg/ml) of the compounds to inhibit growth of various pathogenic bacteria were determined by agar plate dilution method. In this Table, the employed bacteria A, B, and C were as follow: • A: Staphylococcus aureus • B: Streptococcus pneumoniae • C: Haemophilis influenzae strain 9787 (a strain producing β-lactamase)

Staphylococcus aureus = experiment: as above; format: cell-based; settings: read-out: Minimum Concentration to Inhibit Growth of the Employed Bacteria A
Description: as §1

Streptococcus pneumoniae = experiment: as above; format: cell-based; settings: read-out: Minimum Concentration to Inhibit Growth of the Employed Bacteria B
Description: as §1

[2] = Pharmacokinetics, plasma concentration by bioassay after subcutaneous injection; format: in vivo; settings: mouse, sc, mice (ddY, male), 20 mg/kg subcutaneous; for AUC: read-out: AUCall (area under the concentration-time curve in plasma); for Cmax: read-out: Cmax (maximal plasma concentration); for half-life: read-out: T1/2 (half-life in plasma concentration) (converted)
Description: The compounds of the present invention compound (20 mg/kg) was subcutaneously injected to mice (n=3, ddY, male, purchased from SLC Japan). The plasma concentration of the compound was determined by a bioassay method at 5, 15, and 30 min, and 1, 1.5, and 2 hr after administration. In the Table, Cmax, T1/2, and AUCall indicate the maximal plasma concentration, half-life in plasma concentration, and area under the concentration-time curve in plasma of the compound, respectively.

[3] = test system: S. pneumoniae 9605 (PRSP); experiment: In vivo antibacterial activity, intraperitoneal infection of mice; settings: Streptococcus pneumoniae, 168 h; male ddY mice, i.p. S. pneumoniae 9605 (PRSP), single subcutaneous treatment, Probit method from survival rates 7 days after infection
Description: Male ddY mice of 4 weeks old (purchased from SLC Japan) were intraperitoneally inoculated with S. pneumoniae 9605 (PRSP) at a volume of 0.2 ml (containing 5% mucin, 1-5×10^3 colony forming unit (cfu)/mouse). Immediately after the mice were infected, they were subcutaneously treated with the test compound singly at a volume of 0.1 ml. Seven mice were used per group. A solution of the test compound prepared by 2-step dilution was used for the experiment. ED50 values of the compounds were calculated by the Probit method from survival rates 7 days after infection.

[4] = C: Haemophilis influenzae strain 9787 (β-lactamase producing), agar plate dilution
[5] = A: Staphylococcus aureus, agar plate dilution
[6] = B: Streptococcus pneumoniae, agar plate dilution

Q: For `C[C@@H](O)[C@H]1C(=O)N2C(C(=O)[O-])=C(SC3CN(c4nc(C(N)=O)cs4)C3)[C@H](C)[C@H]12.[Na+]` [Example 3, (1R,5S,6S)-2-[1-(4-Carbamoyl-1,3-thiazol-2-yl)azetidin-3-yl]thio-6-[(R)-1-hydroxyethyl]-1-methylcarbapen-2-em-3-carboxylic acid sodium salt], which MIC [1, 4] is on record?
A: 0.1 µg/mL

Q: What about the MIC (Staphylococcus aureus; [5]) of the same molecule?
A: 0.05 µg/mL

Q: And the MIC (Streptococcus pneumoniae; [6])?
A: 0.2 µg/mL

Q: What about the AUC [2] of the same molecule?
A: 83900 ng·h/mL

Q: And the Cmax [2]?
A: 127 µg/mL

Q: And the half-life [2]?
A: 15 min

Q: Which MIC [1] does the source give for `C[C@@H](O)[C@H]1C(=O)N2C(C(=O)[O-])=C(SC3CN(c4nc(C#N)cs4)C3)[C@H](C)[C@H]12.[Na+]` [Example 4, (1R,5S,6S)-2-[1-(4-Cyano-1,3-thiazol-2-yl)azetidin-3-yl]thio-6-[(R)-1-hydroxyethyl]-1-methylcarbapen-2-em-3-carboxylic acid sodium salt] here?
A: 0.2 µg/mL

Q: And the MIC (Staphylococcus aureus; Staphylococcus aureus)?
A: 0.05 µg/mL

Q: And the MIC (Streptococcus pneumoniae; Streptococcus pneumoniae)?
A: 0.2 µg/mL

Q: And the AUC ([2]; in vivo)?
A: 165000 ng·h/mL

Q: What about the Cmax ([2]; in vivo) of the same molecule?
A: 157 µg/mL

Q: And the half-life ([2]; in vivo)?
A: 61.2 min

Q: With `CNC(=O)c1csc(N2CC(SC3=C(C(=O)[O-])N4C(=O)[C@H]([C@@H](C)O)[C@H]4[C@H]3C)C2)n1.[Na+]` [Example 5, (1R,5S,6S)-2-[1-(4-N-Methylcarbamoyl-1,3-thiazol-2-yl)azetidin-3-yl]thio-6-[(R)-1-hydroxyethyl]-1-methylcarbapen-2-em-3-carboxylic acid sodium salt] as the molecule, how does the MIC [1, 4] read?
A: 0.2 µg/mL

Q: What about the MIC (Staphylococcus aureus; [5]) of the same molecule?
A: 0.05 µg/mL

Q: What about the MIC (Streptococcus pneumoniae; [6]) of the same molecule?
A: 0.2 µg/mL

Q: Which results are given for `C[C@@H](O)[C@H]1C(=O)N2C(C(=O)[O-])=C(SC3CN(c4nc(C(=O)N(C)C)cs4)C3)[C@H](C)[C@H]12.[Na+]` [Example 6, (1R,5S,6S)-2-[1-(4-N,N-Dimethylcarbamoyl-1,3-thiazol-2-yl)azetidin-3-yl]thio-6-[(R)-1-hydroxyethyl]-1-methylcarbapen-2-em-3-carboxylic acid sodium salt]?
A: MIC [1, 4]: 0.2 µg/mL; MIC (Staphylococcus aureus; [5]): 0.05 µg/mL; MIC (Streptococcus pneumoniae; [6]): 0.2 µg/mL

Q: With `C[C@@H](O)[C@H]1C(=O)N2C(C(=O)[O-])=C(SC3CN(c4nc(C(=O)N5CCOCC5)cs4)C3)[C@H](C)[C@H]12.[Na+]` [Example 11, (1R,5S,6S)-2-[1-(4-Morpholinocarbonyl-1,3-thiazol-2-yl)azetidin-3-yl]thio-6-[(R)-1-hydroxyethyl]-1-methylcarbapen-2-em-3-carboxylic acid sodium salt] as the molecule, how does the AUC [2] read?
A: 40400 ng·h/mL

Q: What about the Cmax [2] of the same molecule?
A: 56.6 µg/mL

Q: And the half-life [2]?
A: 19.8 min

Q: With `C[C@@H](O)[C@H]1C(=O)N2C(C(=O)[O-])=C(S[C@@H]3CCN(c4nc(C(N)=O)cs4)C3)[C@H](C)[C@H]12.[Na+]` [Example 19, (1R,5S,6S)-2-[(3R)-1-(4-Carbamoyl-1,3-thiazol-2-yl)pyrrolidin-3-yl]thio-6-[(R)-1-hydroxyethyl]-1-methylcarbapen-2-em-3-carboxylic acid sodium salt] as the molecule, how does the MIC [1, 4] read?
A: 0.1 µg/mL

Q: What about the MIC (Staphylococcus aureus; [5]) of the same molecule?
A: 0.05 µg/mL

Q: And the MIC (Streptococcus pneumoniae; [6])?
A: 0.2 µg/mL

Q: With `C[C@@H](O)[C@H]1C(=O)N2C(C(=O)[O-])=C(SC3CN(c4nc(C(N)=O)co4)C3)[C@H](C)[C@H]12.[Na+]` [Example 22, (1R,5S,6S)-2-[1-(4-Carbamoyl-1,3-oxazol-2-yl)azetidin-3-yl]thio-6-[(R)-1-hydroxyethyl]-1-methylcarbapen-2-em-3-carboxylic acid sodium salt] as the molecule, how does the MIC [1, 4] read?
A: 0.1 µg/mL

Q: What about the MIC (Staphylococcus aureus; [5]) of the same molecule?
A: 0.05 µg/mL

Q: What about the MIC (Streptococcus pneumoniae; [6]) of the same molecule?
A: 0.2 µg/mL

Q: With `C[C@@H](O)[C@H]1C(=O)N2C(C(=O)[O-])=C(SC3CN(c4nc(C(=O)N5CCC5)cs4)C3)[C@H](C)[C@H]12.[Na+]` [Example 24, (1R,5S,6S)-2-[1-(4-Azetidinocarbonyl-1,3-thiazol-2-yl)azetidin-3-yl]thio-6-[(R)-1-hydroxyethyl]-1-methylcarbapen-2-em-3-carboxylic acid sodium salt] as the molecule, how does the MIC [1, 4] read?
A: 0.05 µg/mL

Q: What about the MIC (Staphylococcus aureus; [5]) of the same molecule?
A: ≤ 0.012 µg/mL

Q: What about the MIC (Streptococcus pneumoniae; [6]) of the same molecule?
A: 0.025 µg/mL

Q: With `C[C@@H](O)[C@H]1C(=O)N2C(C(=O)[O-])=C(SC3CN(c4nc(C(=O)N5CCSCC5)cs4)C3)[C@H](C)[C@H]12.[Na+]` [Example 25, (1R,5S,6S)-2-[1-(4-Thiomorpholinocarbonyl-1,3-thiazol-2-yl)azetidin-3-yl]thio-6-[(R)-1-hydroxyethyl]-1-methylcarbapen-2-em-3-carboxylic acid sodium salt] as the molecule, how does the MIC [1, 4] read?
A: 0.39 µg/mL

Q: What about the MIC (Staphylococcus aureus; [5]) of the same molecule?
A: 0.025 µg/mL

Q: What about the MIC (Streptococcus pneumoniae; [6]) of the same molecule?
A: 0.1 µg/mL

Q: For `C[C@@H](O)[C@H]1C(=O)N2C(C(=O)O)=C(SC3CN(c4nc(C(=O)NC5CCNCC5)cs4)C3)[C@H](C)[C@H]12` [Example 56, (1R,5S,6S)-2-{1-[4-(piperidin-4-ylcarbamoyl)-1,3-thiazol-2-yl]azetidin-3-yl}thio-6-[(R)-1-hydroxyethyl]-1-methylcarbapen-2-em-3-carboxylic acid], which MIC [1, 4] is on record?
A: 0.2 µg/mL (≈ 0.394 µM)

Q: And the MIC (Staphylococcus aureus; [5])?
A: 0.05 µg/mL (≈ 0.0985 µM)

Q: And the MIC (Streptococcus pneumoniae; [6])?
A: 0.2 µg/mL (≈ 0.394 µM)

Q: Which MIC [1, 4] does the source give for `C[C@@H](O)[C@H]1C(=O)N2C(C(=O)O)=C(SC3CN(c4nc(C(=O)NC5CNC5)cs4)C3)[C@H](C)[C@H]12` [Example 59, (1R,5S,6S)-2-{1-[4-(azetidin-3-ylcarbamoyl)-1,3-thiazol-2-yl]azetidin-3-yl}thio-6-[(R)-1-hydroxyethyl]-1-methylcarbapen-2-em-3-carboxylic acid] here?
A: 0.2 µg/mL (≈ 0.417 µM)

Q: And the MIC (Staphylococcus aureus; [5])?
A: ≤ 0.012 µg/mL

Q: And the MIC (Streptococcus pneumoniae; [6])?
A: 0.2 µg/mL (≈ 0.417 µM)

Q: And the ED50 [3]?
A: 1.08 mg/kg

Q: What does the source list for `C[C@@H](O)[C@H]1C(=O)N2C(C(=O)O)=C(SC3CN(c4nc(C(=O)NCCN)cs4)C3)[C@H](C)[C@H]12` [Example 61, (1R,5S,6S)-2-{1-[4-((2-aminoethyl)carbamoyl)-1,3-thiazol-2-yl]azetidin-3-yl}thio-6-[(R)-1-hydroxyethyl]-1-methylcarbapen-2-em-3-carboxylic acid]?
A: MIC [1, 4]: 0.39 µg/mL (≈ 0.834 µM); MIC (Staphylococcus aureus; [5]): 0.025 µg/mL (≈ 0.0535 µM); MIC (Streptococcus pneumoniae; [6]): 0.2 µg/mL (≈ 0.428 µM); ED50 [3]: 1.79 mg/kg

Q: Which results are given for `C[C@@H](O)[C@H]1C(=O)N2C(C(=O)O)=C(SC3CN(c4nc(CNC(=O)c5ccccc5)cs4)C3)[C@H](C)[C@H]12` [Example 69, (1R,5S,6S)-2-{1-[4-(benzoylaminomethyl)-1,3-thiazol-2-yl]azetidin-3-yl}thio-6-[(R)-1-hydroxyethyl]-1-methylcarbapen-2-em-3-carboxylic acid sodium salt]?
A: MIC [1, 4]: 0.78 µg/mL; MIC (Staphylococcus aureus; [5]): ≤ 0.012 µg/mL; MIC (Streptococcus pneumoniae; [6]): ≤ 0.012 µg/mL

Q: Which MIC [1, 4] does the source give for `C[C@@H](O)[C@H]1C(=O)N2C(C(=O)O)=C(SC3CN(c4nc(CNC(=O)c5cccs5)cs4)C3)[C@H](C)[C@H]12` [Example 71, (1R,5S,6S)-2-(1-{4-[(Thiophene-2-carbonylamino)methyl]-1,3-thiazol-2-yl}azetidin-3-yl)thio-6-[(R)-1-hydroxyethyl]-1-methylcarbapen-2-em-3-carboxylic acid sodium salt] here?
A: 0.39 µg/mL

Q: What about the MIC (Staphylococcus aureus; [5]) of the same molecule?
A: ≤ 0.012 µg/mL

Q: And the MIC (Streptococcus pneumoniae; [6])?
A: ≤ 0.012 µg/mL

Q: What does the source list for `C[C@@H](O)[C@H]1C(=O)N2C(C(=O)O)=C(SC3CN(c4nc(CNC(=O)c5ccco5)cs4)C3)[C@H](C)[C@H]12` [Example 72, (1R,5S,6S)-2-(1-{4-[(furan-2-carbonylamino)methyl]-1,3-thiazol-2-yl}azetidin-3-yl)thio-6-[(R)-1-hydroxyethyl]-1-methylcarbapen-2-em-3-carboxylic acid sodium salt]?
A: MIC [1, 4]: 0.2 µg/mL; MIC (Staphylococcus aureus; [5]): ≤ 0.012 µg/mL; MIC (Streptococcus pneumoniae; [6]): 0.025 µg/mL

Q: With `C[C@@H](O)[C@H]1C(=O)N2C(C(=O)O)=C(SC3CN(c4nc(C(=O)N[C@H]5CCNC5)co4)C3)[C@H](C)[C@H]12` [Example 80, (1R,5S,6S)-2-{1-[4-((3S)-pyrrolidin-3-ylcarbamoyl)-1,3-oxazol-2-yl]azetidin-3-yl}thio-6-[(R)-1-hydroxyethyl]-1-methylcarbapen-2-em-3-carboxylic acid] as the molecule, how does the MIC [1, 4] read?
A: 0.39 µg/mL (≈ 0.817 µM)

Q: What about the MIC (Staphylococcus aureus; [5]) of the same molecule?
A: 0.025 µg/mL (≈ 0.0524 µM)

Q: And the MIC (Streptococcus pneumoniae; [6])?
A: 0.2 µg/mL (≈ 0.419 µM)

Q: For `C[C@@H](O)[C@H]1C(=O)N2C(C(=O)O)=C(SC3CN(c4nc(C(=O)N[C@@H]5CCNC5)co4)C3)[C@H](C)[C@H]12` [Example 81, (1R,5S,6S)-2-{1-[4-((3R)-pyrrolidin-3-ylcarbamoyl)-1,3-oxazol-2-yl]azetidin-3-yl}thio-6-[(R)-1-hydroxyethyl]-1-methylcarbapen-2-em-3-carboxylic acid], which MIC [1, 4] is on record?
A: 0.39 µg/mL (≈ 0.817 µM)

Q: What about the MIC (Staphylococcus aureus; [5]) of the same molecule?
A: ≤ 0.012 µg/mL

Q: And the MIC (Streptococcus pneumoniae; [6])?
A: 0.2 µg/mL (≈ 0.419 µM)
